Series [1] is described as follows: Delivery agent plasma concentrations in humans after oral delivery agent capsules. It is filed as in vivo, human. The settings on record: plasma; oral capsules, 750 mg, healthy human volunteers. The protocol:
Delivery agents 1-3 were investigated for their ability to penetrate the GI mucosa. The plasma concentration of each delivery agent was measured in human subjects after oral administration of delivery agent loaded capsules as a measure of each delivery agent's penetration efficiency.
Blood sampling for plasma delivery agent concentration determination (2 mL in sodium heparin tube) were drawn 15 minutes before dosing, and at 5, 10, 15, 30, and 45 minutes and 1, 1.5, 2, 3, 4, 6, 8, and 12 hours post-dose (14 samples per treatment) for delivery agent measurements in all treatment groups.
Two 18-gauge IV lines were situated prior to dosing; one for blood sampling, and the other for potential infusion of 20% glucose for subjects in groups 2 and 3. The subjects in group 1 only had one cannula inserted. The blood samples were centrifuged at 3000 rpm for a period of fifteen minutes at a temperature from about 2° C. to 8° C., within one hour of sample collection. Using a plastic pipette and without disturbing the red cell layer, the plasma from the collection tube was pipetted in duplicate for each analysis, blood glucose, Human Insulin, C-peptide, delivery agent into pre-labeled polypropylene tubes. The samples were stored at −70° C. until analysis.
The indicated doses were ingested by healthy human volunteers and the plasma concentrations of the delivery agents were monitored over time and the area under the curve (AUC) calculated. […] Similarly, oral administration of 800 mg of delivery agent number 3 produced more than a 23 fold greater penetration of the GI mucosa in humans than did oral administration of 750 mg of delivery agent 2 having n equal to 9 alkyl.

Series [2] can be described thus: Delivery agent plasma concentrations in monkeys after oral administration. It is filed as in vivo. The settings on record: monkey, plasma, oral, 300 mg. On the procedure:
Similar results were obtained when delivery agents 1-3 were administered orally to monkeys and the plasma concentrations of the delivery agents monitored over time and the AUC calculated.

The next series relates to serum glucose. Nature of the series: Effective clinical dose of delivery agent in humans (delivery efficiency). In kind it is in vivo, human. The conditions noted are these: active agent heparin. The protocol:
Next, delivery agents 1-3 were compared for the ability to efficiently transport an active agent across the GI mucosa in a biologically active form by determining the relationship between delivery agent dose, dose of active agent and the glucose response. The effective dose of delivery agent necessary to deliver a therapeutic dose of active agent and produce a therapeutic effect was measured. For delivery agent 3, the active agent was insulin, and the therapeutic effect was determined by the ability of the delivery agent/insulin combination to lower serum glucose by at least 10% within one hour post administration. For delivery agents 1 and 2, the active agent was heparin, and the therapeutic effect was determined by […]

For a further series, the system named is blood glucose. As to the kind of experiment: Example 7: postprandial blood glucose excursions after standardized breakfast, type 2 diabetic patients. It is filed as in vivo, human.

These results are taken from patent US7429564B2, “Oral insulin therapy” (Emisphere Technologies, Inc., priority 2002, dated 2008).

Procedure for blood glucose: A randomized, 3-period crossover, double-blind, double-dummy study was conducted in order to compare the effect (i.e., the postprandial pharmacokinetic and pharmacodynamic profiles) of an oral insulin formulation with that of s.c. administered short acting insulin on postprandial blood glucose excursions in Type 2 Diabetic subjects without any antidiabetic medication.
All patients received the same oral and SC injection treatments in a randomized sequence. […]
Blood samples for blood glucose determination (0.25 mL per sample) were taken at −1 min (baseline), 5 minutes after start of meal intake and thereafter in 5 minute intervals until 120 minutes, 10 minute intervals until 240 minutes, and 15 minute intervals until 360 minutes after start of meal intake (45 samples per session). Blood glucose concentrations were measured immediately after sample collection using an automated GOD method (Super GL Ambulance Glucose Analyzer, Ruhrtal Labortechnik, Delecke-Möhnesee, Germany). […]
For pharmacodynamic assessment, the following parameters were calculated: Maximal blood glucose excursion (BGmax), time to BGmax (tBGmax) Area under the blood glucose excursion curve in defined time-intervals (AUCBG 0-1h, AUCBG 0-2h, AUCBG 0-3h, AUCBG 0-4h, AUCBG 0-6h), maximal absolute blood glucose concentrations (BGabsmax), time to BGabsmax (tBGabsmax). […]

`O=C(O)CCCCCCCNC(=O)c1ccccc1O` [1 (SNAC), reference compound]: the AUC came to 3500 ng·h/mL in series [1] and 45 ng·h/mL in series [2]. Also, the “Effective clinical dose of delivery agent” value in the series on serum glucose is reported as 2400 Mg.
For `O=C(O)CCCCCCCCCNC(=O)c1ccccc1O` [2 (SNAD), reference compound], the AUC in series [1] came out at 2040 ng·h/mL; in series [2] it was 82 ng·h/mL. Further, in the series with serum glucose, the “Effective clinical dose of delivery agent” value turned out to be 1500 Mg.
As for “SC short-acting insulin: subcutaneous injected short acting insulin, Humalog injection 100 U/ml from Eli Lilly”, in the series with blood glucose (12 U SC, dosed 15 min before meal, mean (range)), the “Mean fasting blood glucose at baseline (−1 minute)” value amounted to 143.11 mg/dL. For the same molecule, the “Time to maximal glucose excursion (median)” value in the series on blood glucose (SC 12 U, 15 min before meal) stood at 1.3 h.
